Reference: US6660755B2, “Substituted diaryl or diheteroaryl methans, ethers and amines having retinoid agonist, antagonist or inverse agonist type biological activity” (Allergan, Inc., priority 1997, dated 2003)
pKd: −log10 of the molar value.

Assays:
RARα = target: T1, RARα (Homo sapiens, UniProt P10276); test: Ligand binding assay, RARα
T1 sequence (P10276 1-462): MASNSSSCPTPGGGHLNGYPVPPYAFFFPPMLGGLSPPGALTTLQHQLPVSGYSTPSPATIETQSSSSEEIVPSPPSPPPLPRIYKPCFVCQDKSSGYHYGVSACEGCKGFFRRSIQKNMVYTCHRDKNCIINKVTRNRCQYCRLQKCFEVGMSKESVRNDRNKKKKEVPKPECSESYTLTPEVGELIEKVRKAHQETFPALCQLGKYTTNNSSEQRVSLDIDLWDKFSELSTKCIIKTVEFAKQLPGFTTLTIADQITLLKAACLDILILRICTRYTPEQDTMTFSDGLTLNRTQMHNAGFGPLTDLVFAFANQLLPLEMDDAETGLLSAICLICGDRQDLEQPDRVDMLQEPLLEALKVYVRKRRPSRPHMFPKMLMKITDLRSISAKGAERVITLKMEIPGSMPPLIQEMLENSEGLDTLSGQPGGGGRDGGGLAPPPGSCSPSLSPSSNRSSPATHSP
Excerpt: (§1) A holoreceptor transactivation assay and a ligand binding assay which measure the antagonist/agonist like activity of the compounds of the invention, or their ability to bind to the several retinoid receptor subtypes, respectively, are described in published PCT Application No. WO WO93/11755 (particularly on pages 30-33 and 37-41) published on Jun. 24, 1993, the specification of which is also incorporated herein by reference. A detailed experimental procedure for holoreceptor transactivations has been described by Heyman et al. Cell 1992, 68, 397-406; Allegretto et al. J. Biol. Chem. 1993 268, 26625-26633, and Mangelsdorf et al. The Retinoids: Biology, Chemistry and Medicine, pp 319-349, Raven Press Ltd., New York, which are expressly incorporated herein by reference. The results obtained in this assay are expressed in EC50 numbers, as they are also in the chimeric receptor transactivation assay. The results of ligand binding assay are expressed in Kd numbers. (See Cheng et al. Biochemical Pharmacology 22, 3099-3108, expressly incorporated herein by reference.) Still another transactivation assay, the “PGR assay” is described in the publication Klein et al. J. Biol. Chem. 1996, 271, 22692-22696, which is expressly incorporated herein by reference, and a detailed description is also provided below. The results of the PGR assay are also expressed in EC50 numbers (nanomolar concentration).

RARβ = target: T2, RARβ (Homo sapiens, UniProt P10826); test: Ligand binding assay, RARβ; conditions: read-out: Kd RABβ
T2 sequence (P10826 1-455): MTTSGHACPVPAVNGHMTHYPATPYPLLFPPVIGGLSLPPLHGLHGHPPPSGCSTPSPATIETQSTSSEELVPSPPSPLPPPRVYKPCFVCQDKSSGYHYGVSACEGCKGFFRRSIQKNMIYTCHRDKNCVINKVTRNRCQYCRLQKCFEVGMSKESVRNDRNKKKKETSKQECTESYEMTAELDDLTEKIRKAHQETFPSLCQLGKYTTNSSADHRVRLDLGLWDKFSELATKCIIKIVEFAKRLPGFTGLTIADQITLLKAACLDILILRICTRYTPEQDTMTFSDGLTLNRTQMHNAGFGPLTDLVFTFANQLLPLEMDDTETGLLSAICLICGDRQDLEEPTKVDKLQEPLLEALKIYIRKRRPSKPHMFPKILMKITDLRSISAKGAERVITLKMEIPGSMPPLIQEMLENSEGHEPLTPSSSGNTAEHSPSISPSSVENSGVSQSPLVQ
Excerpt: as §1

RARγ = target: T3, RARγ (Homo sapiens, UniProt P13631); test: Ligand binding assay, RARγ
T3 sequence (P13631 1-454): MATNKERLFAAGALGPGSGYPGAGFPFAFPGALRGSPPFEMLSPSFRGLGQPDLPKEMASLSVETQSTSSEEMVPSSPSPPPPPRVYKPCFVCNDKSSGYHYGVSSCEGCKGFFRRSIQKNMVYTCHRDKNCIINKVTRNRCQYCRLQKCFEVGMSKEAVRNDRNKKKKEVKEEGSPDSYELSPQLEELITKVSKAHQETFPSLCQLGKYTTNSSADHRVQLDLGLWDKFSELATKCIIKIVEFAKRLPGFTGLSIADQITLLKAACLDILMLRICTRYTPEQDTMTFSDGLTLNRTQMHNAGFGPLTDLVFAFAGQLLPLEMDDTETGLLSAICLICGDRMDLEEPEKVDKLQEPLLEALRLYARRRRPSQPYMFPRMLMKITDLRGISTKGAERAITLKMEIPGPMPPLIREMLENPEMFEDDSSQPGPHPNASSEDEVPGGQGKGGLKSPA
Excerpt: as §1

Row | Compound | pKd (RARα) | pKd (RARβ) | pKd (RARγ)
1 | CC(C)(C)c1ccc(C#Cc2ccc(C(=O)O)cc2)cc1Oc1ccc(C(F)(F)F)cc1 [Compound 3, 4-[[4′-tert-Butyl-3′-(4″-trifluoromethyl)phenoxy]phenylethynyl]benzoic Acid] | 7.05 | 7.36 | 6.99
2 | CC(C)(C)c1ccc(C#Cc2ccc(C(=O)O)c(F)c2)cc1Oc1ccc(C(F)(F)F)cc1 [Compound 4, 4-[[4′-tert-Butyl-3′-(4″-trifluoromethyl)phenoxy]phenylethynyl]-2-fluoro-benzoic Acid] | 7.77 | 7.84 | 7.23
3 | Cc1ccc(Oc2cc(/C=C/c3ccc(C(=O)O)cc3)ccc2C(C)(C)C)cc1 [Compound 15, 4-[[4′-tert-Butyl-3′-(4″-methyl)phenoxy]phenylvinyl]benzoic Acid] | 7.90 | 9.10 | 7.48
4 | CC(C)(C)c1ccc(C#Cc2ccc(C(=O)O)c(F)c2)cc1Oc1ccc(N=[N+]=[N-])cc1 [Compound 17, 4-[[4′-tert-Butyl-3′-(4″-azido)phenoxy]phenylethynyl]-2-fluoro-benzoic Acid] | 7.70 | 7.62 | 7.74
5 | CC(C)(C)c1ccc(C#Cc2ccc(C(=O)O)c(F)c2)cc1Oc1ccc(I)cc1 [Compound 20, 4-[[4′-tert-Butyl-3′-(4″-iodo)phenoxy]phenylethynyl]-2-fluoro-benzoic Acid] | 7.65 | 7.80 | 7.08
6 | CC(C)(C)c1ccc(/C=C/c2ccc(C(=O)O)cc2)cc1Oc1ccc(C(F)(F)F)cc1 [Compound 22, 4-[[4′-tert-Butyl-3′-(4″-trifluoromethyl)phenoxy]vinyl]benzoic Acid] | 7.77 | 7.44 | 6.79
7 | CCc1ccc(Oc2cc(C#Cc3ccc(C(=O)O)c(F)c3)ccc2C(C)(C)C)cc1 [Compound 25, 4-[[4′-tert-Butyl-3′-(4″-ethyl)phenoxy]phenylethynyl]-2-fluoro-benzoic Acid] | 7.92 | 8.05 | 7.65
8 | Cc1ccc(Oc2cc(C#Cc3ccc(C(=O)O)c(F)c3)ccc2C(C)(C)C)cc1 [Compound 26, 4-[[4′-tert-Butyl-3′-(4″-methyl)phenoxy]phenylethynyl]-2-fluoro-benzoic Acid] | 7.96 | 8.00 | 7.77
9 | Cc1ccc(Oc2cc(C#Cc3ccc(C(=O)O)cc3)ccc2C(C)(C)C)cc1 [Compound 30, 4-[[4′-tert-Butyl-3′-(4″-methyl)phenoxy]phenylethynyl]benzoic Acid] | 7.32 | 7.89 | 7.39
